In the test the test system is CHO GS-KO cells. Put plainly: Modulation of afucosylation of a model IgG antibody produced by CHO GS-KO cells in supplemented culture medium (shake flasks, 5 days, LC-MS glycan profile). It is filed as cell-based, Chinese hamster. The conditions noted are these: for Average % Afucosylation: mAb harvested day 5, G0/(G0F+G0), n = 3 technical replicates, control 5.21%. How it is done:
CHO GS-KO cells were cultured in chemically defined culture medium supplemented with different chemicals at different concentrations to test the impact of those chemicals on the N-linked glycan profile of the product produced by the cultures. The product produced by this cell line was a model IgG antibody. • 1. Prepare culture media with supplemented chemicals • 2. Culture cells in media from (1) • 3. Harvest mAb produced in cultures and measure glycan profile of purified, reduced, and de-salted mAb products • 4. Determine statistical impact of chemical supplements on glycan product quality The chemicals that were supplemented to the medium included: • None (Control) • Mannose • N-Acetylmannosamine (ManNAc)+Galactose Concentrated stock solutions of mannose, ManNAc, and galactose were prepared and added into culture media. Specific volumes of the stock solution was supplemented to the culture media to generate the conditions in Table 1: GS-KO cells were inoculated at a density of 2×10^5 cells/mL into vented shake flasks containing medium from Table 1. Cultures were grown for five days in a temperature, CO2, and humidity-controlled incubator. Daily samples were taken to monitor the culture health. mAb product was harvested from day 5 shake flask cultures and purified through Protein A capture. Purified mAb was prepared for glycan analysis by reducing mAb to separate heavy and light chains. Reduced mAb was injected onto an LC-MS where the reduced mAb was de-salted by passing through a reverse-phase de-salting column on the LC prior to injection into a time of flight mass spectrometer (TOF MS) (Agilent 6230B). Three injections per sample was performed for technical replicates. Protein Metrics Software was used to process the resulting LC-MS data and the relative abundance of each glycan species was reported. The glycan species measured in processing included: G0, G0F, G1F, G2F, G1F+NeuAc, […]+NeuAc, […]+2NeuAc. Percent afucosulated mAb was calculated by dividing the total amount of afucosylated species by the sum of afucosylate and fucosylated species (G0/[…]+G0).

Each structure is given as a SMILES string.

For `CC(=O)N[C@@H]1C(O)O[C@H](CO)[C@@H](O)[C@@H]1O` (stereo partly drawn) [ManNAc, N-Acetylmannosamine], for the setting “higher concentration of ManNAc (10 uM), with 1 mM galactose”, the “afucosylation compared to control (in words)” value is listed as “decreasing afucosylation slightly”.
As to `O=C[C@@H](O)[C@@H](O)[C@H](O)[C@H](O)CO` [Mannose, mannose], the “Average % Afucosylation” value by setting is: (culture medium + 1 g/L Mannose) 5.63%; (culture medium + 3 g/L Mannose) 6.10%; (culture medium + 6 g/L Mannose) 7.27%. The “high mannose species of the antibody product (in words)” value (mannose in amounts greater than about 1 g/L) is recorded as “does not appear to result in an increase in high mannose species”. The “% afucosylated mAb compared to control (in words)” value (supplementation of culture medium with mannose, 1, 3, 6 g/L) is “significantly increased”.

Source of the values: patent publication US20240141020A1, “METHOD FOR MODULATING AFUCOSLYATION OF AN ANTIBODY PRODUCT” (LONZA BEND INC., priority 2021, published 2024).
